The values that follow are results of earlier work, collected in patent US11427609B2, “Glycosidic derivatives of treprostinil” (AOP ORPHAN IP AG, priority 2017, dated 2022).

A word on the bioavailability: it is dose-corrected exposure relative to a reference, in per cent.

Regarding `CCCCC[C@H](O)CC[C@@H]1[C@H]2Cc3cccc(OCC(=O)O)c3C[C@H]2C[C@H]1O` [Treprostinil], the bioavailability (Remodulin, subcutaneous or intravenous infusion) was about 100%. In addition, the biological half-life (human organism) is reported as 4.4-4.6 hours. For the setting “in vivo”, the excretion in feces is listed as 13%, the “urinary excretion as identified metabolites” value is 64% and the “urinary excretion as unmetabolized treprostinil” value is listed as 4%. Besides, under “total”, the urinary excretion is on record as 79%.
